Results: patent publication EP4722209A1 (Beijing Shenogen Pharma Group, priority 2023, dated 2024)

Biological target: T1, ERα (Homo sapiens, UniProt P03372)
T1 construct: host or cells: MCF-7
T1 sequence (P03372 1-595): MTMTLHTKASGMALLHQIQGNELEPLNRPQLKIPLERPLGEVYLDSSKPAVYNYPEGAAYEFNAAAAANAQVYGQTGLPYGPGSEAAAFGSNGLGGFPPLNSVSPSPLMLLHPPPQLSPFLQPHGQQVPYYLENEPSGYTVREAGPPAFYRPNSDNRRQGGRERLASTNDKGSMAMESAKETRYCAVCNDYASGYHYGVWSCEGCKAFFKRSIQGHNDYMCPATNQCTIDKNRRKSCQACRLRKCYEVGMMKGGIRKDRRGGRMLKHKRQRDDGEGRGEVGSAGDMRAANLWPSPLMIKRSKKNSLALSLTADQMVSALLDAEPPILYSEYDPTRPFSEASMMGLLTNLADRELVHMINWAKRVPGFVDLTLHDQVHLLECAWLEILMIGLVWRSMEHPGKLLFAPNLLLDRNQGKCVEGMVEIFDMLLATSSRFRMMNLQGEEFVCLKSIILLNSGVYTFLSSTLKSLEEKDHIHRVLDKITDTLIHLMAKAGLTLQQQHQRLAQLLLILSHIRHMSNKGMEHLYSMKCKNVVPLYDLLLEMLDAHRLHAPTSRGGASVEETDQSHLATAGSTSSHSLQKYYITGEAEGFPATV
Assay: ER degradation activity in MCF-7 cells (Western blot, grayscale intensity)
Format: cell-based
Settings: 6 hours treatment, 1 nM to 100 nM, concentration required to degrade 50% of the target protein
Description: ERα-positive human breast cancer cells MCF-7 (ATCC, HTB-22) were cultured with EMEM medium (ATCC, catalog number 30-2003) containing 10% fetal bovine serum (Thermo Fisher, catalog number 10099141) and 10 µg/mL bovine insulin in 25 cm^2 or 75 cm^2 plastic tissue culture flasks in a 37 °C incubator with 5% CO2. The cells were passaged 2 to 3 times per week. MCF-7 cells were seeded in 6-well plate at 1×10^6 cells/well with 1.8 mL culture medium per well, and cultured in a 37 °C incubator with 95% air and 5% CO2. After 24 hours, the test compounds were added: the compounds were serially diluted 10-fold in DMSO starting from 10 mM (dissolved in DMSO) to prepare gradient stock solutions. A complete culture medium containing 1% DMSO was prepared for further dilution, temporarily named as the "dilution buffer." Working solutions were prepared by diluting each stock solution with 99 times the volume of dilution buffer, that is, by adding 1 µL of the 10 mM stock solution to 99 µL of the dilution buffer and mixing thoroughly.
Finally, […] of the working solution was added to the cell-seeded culture plate. The final concentration of DMSO in the cell culture medium was 0.2%, and the final concentration of the test compounds ranged from 1 nM to 100 nM. The cells were then incubated at 37 °C for 6 hours.
The culture medium was removed, and the cells were washed twice with ice cold PBS. 1 mL of PBS was added to each well, and the cells were collected into EP tubes using a cell scraper, and centrifuged at 4 °C, 4000 rpm for 5 minutes. PBS was aspirated. Total protein was extracted using the Minute™ Mammalian Tissue/Cell Total Protein Extraction Reagent. The protein concentration was measured using the BCA protein assay kit. 30 µg of protein was taken and mixed with 5× SDS-PAGE loading buffer, boiled for 10 minutes, and cooled. The samples were loaded into wells of a precast gel, with constant voltage at 80 V for 30 minutes, and then the voltage was changed to 120 V after the samples entered the resolving gel. The "sandwich" (sponge - filter paper - gel - membrane - filter paper - sponge) was assembled for Bio-Rad's Transblot. Transfer was performed for 1 hour at 0.3 amp at 4 °C. The sample was blocked with 5% fat-free milk for 1 hour, and incubated with Estrogen Receptor alpha Antibody (Thermo Fisher, catalog number MA5-14104) overnight at 4 °C. The membrane was washed with TBST to remove non-specifically bound antibodies, and then incubated with goat anti-mouse IgG-HRP secondary antibody for 1 hour at room temperature, and was visualized using ECL. The protein degradation level was calculated by measuring the grayscale intensity.
The DC50 values (i.e., the concentration of the test compounds required to degrade 50% of the target protein) were calculated and shown in Table 1. A corresponds to a DC50 value below 10 nM, B corresponds to a DC50 value greater than 10 nM and less than 100 nM, and C corresponds to DC50 values greater than 100 nM. Table 1. The DC50 values of exemplary compounds in MCF-7 cells

| SMILES | DC50 [nM] |
| --- | --- |
| CC1(C)CC(=C(c2ccc(N3CCN(C[C@@H]4[C@H]5CN(c6ccc7c(c6)CN(C6CCC(=O)NC6=O)C7=O)C[C@@H]45)CC3)nc2)c2ccc3[nH]nc(F)c3c2)CC(C)(C)O1 (stereo partly drawn) [Compound 52] | > 100 |
| CC1(C)CC(=C(c2ccc(N3CCC(CN4CCN(c5ccc6c(c5)CN(C5CCC(=O)NC5=O)C6=O)CC4)CC3)nc2)c2cccc(O)c2)CC(C)(C)O1 (stereo not drawn) [Compound 114] | 10 to 100 |
| CC1(C)CC(=C(c2ccc(N3CCC4(CC3)CC(N3CCN(c5ccc(C(=O)N[C@H]6CCC(=O)NC6=O)c(F)c5)CC3)C4)nc2)c2ccc3[nH]nc(F)c3c2)CC(C)(C)O1 [Compound 123] | 10 to 100 |
| CC1(C)CC(=C(c2ccc3[nH]nc(F)c3c2)c2c(F)cc(OC3CN(CC4CCN(c5ccc6c(c5)C(=O)N(C5CCC(=O)NC5=O)C6=O)CC4)C3)cc2F)CC(C)(C)O1 (stereo not drawn) [Compound 24] | 10 to 100 |
| CC1(C)CC(=C(c2ccc3[nH]nc(F)c3c2)c2c(F)cc(N3CCN(CC4CCN(c5ccc6c(c5)C(=O)N(C5CCC(=O)NC5=O)C6=O)CC4)CC3)cc2F)CC(C)(C)O1 (stereo not drawn) [Compound 102] | > 100 |
| CC1(C)CC(=C(c2ccc(N3CC4C(CN5CCN(c6ccc7c(c6)CN(C6CCC(=O)NC6=O)C7=O)CC5)C4C3)nc2)c2ccc3[nH]nc(F)c3c2)CC(C)(C)O1 (stereo not drawn) [Compound 51] | > 100 |
| CC1(C)CC(=C(c2ccc(N3CCC(CN4CCN(c5ccc6c(c5)C(=O)N(C5CCC(=O)NC5=O)C6=O)CC4)CC3)nc2)c2ccc3[nH]nc(F)c3c2)CC(C)(C)O1 (stereo not drawn) [Compound 103] | 10 to 100 |
| CC1(C)CC(=C(c2ccc(N3CC(N4CCN(c5ccc6c(c5)C(=O)N(C5CCC(=O)NC5=O)C6=O)CC4)C3)cc2)c2ccc3[nH]nc(F)c3c2)CC(C)(C)O1 (stereo not drawn) [Compound 13] | > 100 |
| Cn1c(=O)n(C2CCC(=O)NC2=O)c2cccc(C#CCN3CCN(c4ccc(C(=C5CC(C)(C)OC(C)(C)C5)c5ccc6[nH]nc(F)c6c5)cn4)CC3)c21 (stereo not drawn) [Compound 101] | > 100 |
| CC1(C)CC(=C(c2ccc3[nH]nc(F)c3c2)c2c(F)cc(N3CC(N4CCN(c5ccc6c(c5)C(=O)N(C5CCC(=O)NC5=O)C6=O)CC4)C3)cc2F)CC(C)(C)O1 (stereo not drawn) [Compound 29] | > 100 |
| CC1(C)CC(=C(c2ccc(N3CCC4(CC3)CN(C3CCN(c5ccc6c(c5)CN([C@@H]5CCC(=O)NC5=O)C6=O)CC3)C4)nc2)c2ccc3[nH]nc(F)c3c2)CC(C)(C)O1 [Compound 140] | < 10 |
| Cn1nc(N2CCC(=O)NC2=O)c2ccc(C3CCN(CC(=O)N4CCN(c5ccc(C(=C6CC(C)(C)OC(C)(C)C6)c6ccc7[nH]nc(F)c7c6)cn5)CC4)CC3)cc21 [Compound 92] | > 100 |
| CC1(C)CC(=C(c2ccc(N3CCC4(CC3)CN(C3CCN(c5ccc6c(c5)CN([C@H]5CCC(=O)NC5=O)C6=O)CC3)C4)nc2)c2ccc3[nH]nc(F)c3c2)CC(C)(C)O1 [Compound 141] | < 10 |

Further lines, results first:

| DC50 [nM] | SMILES |
| --- | --- |
| > 100 | CC1(C)CC(=C(c2ccc3[nH]nc(F)c3c2)c2c(F)cc(N3CCN(C4CCN(c5ccc6c(c5)C(=O)N(C5CCC(=O)NC5=O)C6=O)CC4)CC3)cc2F)CC(C)(C)O1 (stereo not drawn) [Compound 10] |
| < 10 | CC1(C)CC(=C(c2ccc(N3CCC(CN4CCN(c5ccc6c(c5)CN([C@H]5CCC(=O)NC5=O)C6=O)CC4)CC3)nc2)c2ccc3[nH]ncc3c2)CC(C)(C)O1 [Compound 137] |
| 10 to 100 | CC1(C)CC(=C(c2ccc(N3CCC(CN4CCN(c5ccc(N6CCC(=O)NC6=O)cc5)CC4)CC3)cc2)c2ccc3[nH]nc(F)c3c2)CC(C)(C)O1 [Compound 76] |
| > 100 | CC1(C)CC(=C(c2ccc(N3CCC(N4CCN(c5ccc(NC6CCC(=O)NC6=O)cc5)CC4)CC3)cc2)c2ccc3[nH]nc(F)c3c2)CC(C)(C)O1 (stereo not drawn) [Compound 86] |
| > 100 | CC1(C)CC(=C(c2ccc(N3CCN(C4CCN(c5ccc(NC6CCC(=O)NC6=O)cc5)CC4)CC3)cc2)c2ccc3[nH]nc(F)c3c2)CC(C)(C)O1 (stereo not drawn) [Compound 91] |
| 10 to 100 | CN(CC1CCN(c2ccc(C(=C3CC(C)(C)OC(C)(C)C3)c3ccc4[nH]nc(F)c4c3)cn2)CC1)C1CCN(c2ccc3c(c2)CN(C2CCC(=O)NC2=O)C3=O)CC1 (stereo not drawn) [Compound 45] |
| < 10 | CC1(C)CC(=C(c2ccc(N3CCC(F)(CNC4CCN(c5ccc6c(c5)CN([C@@H]5CCC(=O)NC5=O)C6=O)CC4)CC3)nc2)c2ccc3[nH]nc(F)c3c2)CC(C)(C)O1 [Compound 142] |
| < 10 | CC1(C)CC(=C(c2ccc(N3CCN(C4CCN(c5ccc6c(c5)C(=O)N(C5CCC(=O)NC5=O)C6=O)CC4)CC3)nc2)c2ccc3[nH]nc(F)c3c2)CC(C)(C)O1 (stereo not drawn) [Compound 105] |
| 10 to 100 | CC1(C)CC(=C(c2ccc(N3CCC(CN4CCN(c5ccc6c(c5)CN(C5CCC(=O)NC5=O)C6=O)CC4)CC3)cc2)c2ccc3[nH]nc(F)c3c2)CC(C)(C)O1 (stereo not drawn) [Compound 41] |
| > 100 | CC1(C)CC(=C(c2ccc(N3CCN(C4CN(c5ccc(N6CCC(=O)NC6=O)cc5)C4)CC3)cc2)c2ccc3[nH]nc(F)c3c2)CC(C)(C)O1 [Compound 82] |
| > 100 | CC1(C)CC(=C(c2ccc(N3CCN(C4CCN(c5ccc(N6CCC(=O)NC6=O)cc5)CC4)CC3)cc2)c2ccc3[nH]nc(F)c3c2)CC(C)(C)O1 [Compound 81] |
| > 100 | CC1(C)CC(=C(c2ccc(OCCN3CCN(c4ccc5c(c4)C(=O)N(C4CCC(=O)NC4=O)C5=O)CC3)cc2)c2ccc3[nH]nc(F)c3c2)CC(C)(C)O1 (stereo not drawn) [Compound 16] |
| < 10 | CC1(C)CC(=C(c2ccc(N3CCC(CN4CCN(c5cccn6c(N7CCC(=O)NC7=O)cnc56)CC4)CC3)nc2)c2ccc3[nH]nc(F)c3c2)CC(C)(C)O1 [Compound 96, 1-(8-(4-((1-(5-((3-fluoro-1H-indazole-5-yl)(2,2,6,6-tetramethyltetrahydro-4H-pyran-4-ylidene)methyl)pyridin-2-yl)piperidin-4-yl)methyl)piperazin-1-yl)imidazole [1,2-a]pyridin-3-yl)dihydropyrimidine-2,4 (1H, 3H) - dione] |
| > 100 | CC1(C)CC(=C(c2ccc(N3CC4(CCN(C(=O)CN5Cc6cc7c(cc6C5)C(=O)N(C5CCC(=O)NC5=O)C7)C4)C3)nc2)c2ccc3[nH]nc(F)c3c2)CC(C)(C)O1 (stereo not drawn) [Compound 71] |
| > 100 | CC1(C)CC(=C(c2ccc(N3CCC(CN4CCN(c5ccc(NC6CCC(=O)NC6=O)cc5)CC4)CC3)cc2)c2ccc3[nH]nc(F)c3c2)CC(C)(C)O1 (stereo not drawn) [Compound 87] |
| 10 to 100 | CC1(C)CC(=C(c2ccc(N3CC4(CCN(C5CCN(c6ccc7c(c6)CN([C@H]6CCC(=O)NC6=O)C7=O)CC5)CC4)C3)nc2)c2ccc3[nH]nc(F)c3c2)CC(C)(C)O1 [Compound 139] |
| < 10 | CC1(C)CC(=C(c2ccc(N3CCC(CNC4CN(c5ccc6c(c5)CN(C5CCC(=O)NC5=O)C6=O)C4)CC3)nc2)c2ccc3[nH]nc(F)c3c2)CC(C)(C)O1 (stereo not drawn) [Compound 57] |
| < 10 | CC1(C)CC(=C(c2ccc(N3CCC(CN4CCN(c5ccc(C(=O)N[C@H]6CCC(=O)NC6=O)c(F)c5)CC4)CC3)nc2)c2ccc3[nH]nc(F)c3c2)CC(C)(C)O1 [Compound 122] |
| > 100 | CC1(C)CC(=C(c2ccc(N3CCC4(CC(N5CCN(c6ccc7c(c6)CN(C6CCC(=O)NC6=O)C7=O)CC5)C4)C3)nc2)c2ccc3[nH]nc(F)c3c2)CC(C)(C)O1 (stereo not drawn) [Compound 49] |
| > 100 | CC1(C)CC(=C(c2ccc(N3CC(CN4CCN(c5ccc6c(c5)C(=O)N(C5CCC(=O)NC5=O)C6=O)CC4)C3)cc2)c2ccc3[nH]nc(F)c3c2)CC(C)(C)O1 (stereo not drawn) [Compound 17] |
